Results reported in US9115149B2, “Heterocyclic compounds as inhibitors of fatty acid biosysnthesis for bacterial infections” (Vitas Pharma Research Private Limited, priority 2011, dated 2015).
≈ marks a conversion by molar mass, not a printed value. Like-named read-outs stand apart in the source and are kept apart here.

Assays:
Type in all cases: cell-based
[1] = tested on: Staphylococcus aureus (ATCC29213); test: MIC by microbroth dilution, methicillin sensitive S. aureus; conditions: read-out: Minimum inhibitory concentration (MIC) Staphylococcus aureus (ATCC29213)
Protocol: (§1) Shown below are the biological activities of representative compounds of the invention. The compounds were tested by the microbroth dilution method (National committee for Clinical Laboratory Standards, M07-A8, Volume 29, 2009) to determine the Minimum Inhibitory Concentration (MIC) against Methicillin sensitive and resistant Staphylococcus aureus. The MICs in the presence of 10% BSA was also tested. Further, select compounds were tested for metabolic stability using mouse liver microsomes based on published protocols (Journal of Biological Sciences, 2008, 8, 1110-1114).

[2] = tested on: Methicillin resistant Staphylococcus aureus (ATCC 33591); test: MIC by microbroth dilution, methicillin resistant S. aureus; conditions: ATCC33591, read-out: Minimum inhibitory concentration (MIC) Methicillin resistant Staphylococcus aureus (ATCC 33591)
Protocol: as §1

[3] = tested on: Bacillus subtilis (ΔFabI, ΔFabL; Pxylose SaFabI); test: Target specificity: MIC in B. subtilis expressing S. aureus FabI under xylose inducible promoter
Protocol: To test for target specificity, the MIC was determined in a Bacillus subtilis strain in which the two FabI homologues (FabI and FabL) were deleted and replaced with S. aureus FabI (Sa FabI) under a Xylose inducible promoter. By varying the amount of xylose in the growth medium, the expression of FabI was proportionately modified. Compounds specifically targeting Sa FabI show an increased MIC when higher amounts of FabI are present in the cell (high Xylose concentrations). In contrast, when FabI levels are low, the cell becomes hypersusceptible, reducing the MIC (low Xylose concentrations). […] Shown below are data for target specificity.

[4] = read-out: MIC in the presence of 0.005% Xylose (low Xylose concentration)
[5] = read-out: MIC in the presence of 0.5% Xylose (high Xylose concentration)

Row | MIC [1] [µg/mL] | MIC [2] [µg/mL] | SMILES | MIC [3, 4] [µg/mL] | MIC [3, 5] [µg/mL]
1 | > 64 | > 64 | CN(Cc1cc2ccccc2n1C)C(=O)/C=C/c1cnc2[nH]c3ccccc3c2c1 [VT-02-00034, (E)-N-methyl-N-((1-methyl-1H-indol-2-yl)methyl)-3-(9H-pyrido[2,3-b]indol-3-yl)acrylamide] |  | 
2 | > 32 | > 32 | CN(Cc1cc2ccccc2n1C)C(=O)/C=C/c1ccc2[nH]c3ncccc3c2c1 [VT-02-00034a, (E)-N-methyl-N-((1-methyl-1H-indol-2-yl)methyl)-3-(9H-pyrido[2,3-b]indol-6-yl)acrylamide] |  | 
3 | > 32 | > 32 | CN1CCC(Nc2n[nH]c3ncc(/C=C/C(=O)N(C)Cc4cc5ccccc5n4C)cc23)CC1 [VT-02-00037, (E)-N-methyl-N-((1-methyl-1H-indol-2-yl)methyl)-3-(3-(1-methylpiperidin-4-ylamino)-1H-pyrazolo[3,4-b]pyridin-5-yl)acrylamide] |  | 
4 | > 32 | > 32 | CCNc1n[nH]c2ncc(/C=C/C(=O)N(C)Cc3cc4ccccc4n3C)cc12 [VT-02-00038, (E)-3-(3-(ethylamino)-1H-pyrazolo[3,4-b]pyridin-5-yl)-N-methyl-N-((1-methyl-1H-indol-2-yl)methyl)acrylamide] |  | 
5 | 2 (≈ 5.55 µM) | 2 (≈ 5.55 µM) | CN(Cc1cc2ccccc2n1C)C(=O)/C=C/c1cnc2c(c1)CC(=O)N2 [VT-02-00050, (E)-N-methyl-N-((1-methyl-1H-indol-2-yl)methyl)-3-(2-oxo-2,3-dihydro-1H-pyrrolo[2,3-b]pyridin-5-yl)acrylamide] |  | 
6 | > 16 | > 16 | CCn1c(=O)[nH]c2ncc(/C=C/C(=O)N(C)Cc3nc4ccccc4s3)cc21 [VT-02-00054, (E)-N-(benzo[d]thiazol-2-ylmethyl)-3-(1-ethyl-2-oxo-2,3-dihydro-1H-imidazo[4,5-b]pyridin-6-yl)-N-methylacrylamide] |  | 
7 | > 16 | > 16 | CN(Cc1cc2ccccc2n1C)C(=O)/C=C/c1cnc2[nH]c(=O)oc2c1 [VT-02-00058, (E)-N-methyl-N-((1-methyl-1H-indol-2-yl)methyl)-3-(2-oxo-2,3-dihydrooxazolo[4,5-b]pyridin-6-yl)acrylamide] |  | 
8 | > 16 | > 16 | CN(Cc1cc2ccccc2n1C)C(=O)/C=C/c1cnc2[nH]cnc2c1 [VT-02-00060, (E)-3-(3H-imidazo[4,5-b]pyridin-6-yl)-N-methyl-N-((1-methyl-1H-indol-2-yl)methyl)acrylamide] |  | 
9 | > 8 | > 8 | Cn1c2c(c3ccccc31)CN(C(=O)/C=C/c1cnc3c(c1)C1(CCC1)C(=O)N3)CC2 [VT-02-00082, (E)-5′-(3-(5-methyl-3,4-dihydro-1H-pyrido[4,3-b]indol-2(5H)-yl)-3-oxoprop-1-enyl)spiro[cyclobutane-1,3′-pyrrolo[2,3-b]pyridin]-2′(1′H)-one] |  | 

Row | SMILES | MIC [1] [µg/mL] | MIC [2] [µg/mL] | MIC [3, 4] [µg/mL] | MIC [3, 5] [µg/mL]
10 | CN(Cc1cc2ccccc2n1C)C(=O)/C=C/c1cnc2[nH]c(=O)[nH]c2c1 [VT-02-00002, (E)-N-methyl-N-((1-methyl-1H-indol-2-yl)methyl)-3-(2-oxo-2,3-dihydro-1H-imidazo[4,5-b]pyridin-6-yl)acrylamide] | 1 (≈ 2.77 µM) | 2 (≈ 5.53 µM) | 0.06 | 1
11 | CN(Cc1cc2ccccc2n1C)C(=O)/C=C/c1cnc2[nH]nc(N)c2c1 [VT-02-00029a, (E)-3-(3-amino-1H-pyrazolo[3,4-b]pyridin-5-yl)-N-methyl-N-((1-methyl-1H-indol-2-yl)methyl)acrylamide] | 1 (≈ 2.77 µM) | 2 (≈ 5.55 µM) | 0.03 | 0.5
12 | CN(Cc1cc2ccccc2n1C)C(=O)/C=C/c1cnc2[nH]ncc2c1 [VT-02-00032, (E)-N-Methyl-N-(1-methyl-1H-indol-2-ylmethyl)-3-(1H-pyrazolo[3,4-b]pyridin-5-yl)-acrylamide] | 4 (≈ 11.6 µM) | 4 (≈ 11.6 µM) | 0.125 | 4
